Measurements taken from the NIST ThermoML archive (doi:10.1016/j.jct.2019.02.027).
Values joined by “and” are separate entries in the source; they are usually repeats but may differ in a detail not shown here. Identical values can stand only once. Numbers after ± are expanded uncertainties.

Tests used:
[1] = 298.15 K; 101.33 kPa; Liquid; Vibrating tube method
[2] = xn = mol fraction of the nth substance listed; details: 298.15 K, 100 kPa, Liquid, Vibrating tube method

CCC(C)O (configuration not stated) [butan-2-ol]
Details | mass density [kg/m3]
[1] | 802.88 ± 1

CCCCCO [pentan-1-ol] + Cc1ccco1
Details | mass density [kg/m3]
[2], x2 = 0 | 810.9 ± 2.4

O=Cc1ccco1 [2-furaldehyde] + CCCO
[2]
Details | mass density [kg/m3]
x1 = 0.0847 | 834.01 ± 3
x1 = 0.134 | 853.46 ± 3
x1 = 0.2237 | 888 ± 3
x1 = 0.2415 | 894.81 ± 3
x1 = 0.2507 | 898.28 ± 3
x1 = 0.2827 | 910.39 ± 3
x1 = 0.3632 | 940.23 ± 3.1
x1 = 0.4309 | 964.88 ± 3.1
x1 = 0.5022 | 990.31 ± 3.1
x1 = 0.6164 | 1030.13 ± 3.1
x1 = 0.7194 | 1065 ± 3.1
x1 = 0.7803 | 1085.14 ± 3.1
x1 = 0.8714 | 1114.75 ± 3.2
x1 = 0.9006 | 1124.2 ± 3.2
x1 = 0.9038 | 1125.2 ± 3.2
x1 = 1 | 1155.45 ± 2.8

CCCCCCO [hexan-1-ol] + O=Cc1ccco1
Details | mass density [kg/m3]
[2], x2 = 0 | 815.9 ± 3.8

CC(C)O [propan-2-ol]
Details | mass density [kg/m3]
[1] | 780.95 ± 1

Cc1ccco1 [2-methylfuran] + CCCCCCO
[2]
Details | mass density
x1 = 0.048 | 819.02 ± 3.7 kg/m3
x1 = 0.0765 | 820.93 ± 3.7 kg/m3
x1 = 0.1423 | 825.44 ± 3.7 kg/m3
x1 = 0.2086 | 830.14 ± 3.7 kg/m3
x1 = 0.2804 | 835.45 ± 3.7 kg/m3
x1 = 0.3598 | 841.72 ± 3.7 kg/m3
x1 = 0.4591 | 850.07 ± 3.7 kg/m3
x1 = 0.4916 | 852.91 ± 3.7 kg/m3
x1 = 0.5728 | 860.42 ± 3.7 kg/m3
x1 = 0.6478 | 867.88 ± 3.7 kg/m3
x1 = 0.7472 | 878.45 ± 3.7 kg/m3 and 878.33 ± 3.7 kg/m3
x1 = 0.7965 | 884.09 ± 3.7 kg/m3
x1 = 0.8596 | 891.67 ± 3.7 kg/m3
x1 = 0.888 | 895.23 ± 3.7 kg/m3
x1 = 0.9411 | 902.08 ± 3.7 kg/m3
x1 = 1 | 910.73 ± 3.6 kg/m3

O=Cc1ccco1 [2-furaldehyde] + CCCCCCO
[2]
Details | mass density [kg/m3]
x1 = 0.0958 | 837.47 ± 3.9
x1 = 0.1364 | 847.08 ± 3.9
x1 = 0.1378 | 847.41 ± 3.9
x1 = 0.2218 | 868.43 ± 3.9
x1 = 0.2573 | 877.76 ± 3.9
x1 = 0.2623 | 879.07 ± 3.9
x1 = 0.2983 | 888.83 ± 3.9
x1 = 0.3699 | 909.14 ± 3.9
x1 = 0.4124 | 921.74 ± 3.9
x1 = 0.4947 | 947.51 ± 3.9
x1 = 0.4965 | 948.07 ± 3.9
x1 = 0.5802 | 976.2 ± 3.9
x1 = 0.6437 | 998.96 ± 3.9
x1 = 0.7375 | 1035.07 ± 3.9
x1 = 0.7661 | 1046.67 ± 3.9
x1 = 0.7703 | 1048.36 ± 3.9
x1 = 0.847 | 1081.45 ± 3.9
x1 = 0.8939 | 1102.9 ± 3.9
x1 = 1 | 1155.45 ± 3.8

Cc1ccco1 [2-methylfuran] + CCC(C)O
[2]
Details | mass density [kg/m3]
x1 = 0.0549 | 808.11 ± 2.8
x1 = 0.0656 | 809.45 ± 2.8
x1 = 0.0952 | 812.22 ± 2.8
x1 = 0.1847 | 821.08 ± 2.8
x1 = 0.2954 | 831.67 ± 2.8
x1 = 0.3763 | 839.84 ± 2.8
x1 = 0.4673 | 849.03 ± 2.8
x1 = 0.5696 | 859.9 ± 2.8
x1 = 0.6998 | 873.97 ± 2.8
x1 = 0.7611 | 881.06 ± 2.8
x1 = 0.8132 | 887.16 ± 2.9
x1 = 0.8548 | 891.9 ± 2.9
x1 = 0.8832 | 895.12 ± 2.9
x1 = 0.8998 | 897.35 ± 2.9
x1 = 0.9091 | 898.45 ± 2.9
x1 = 0.9333 | 901.44 ± 2.9
x1 = 1 | 910.73 ± 2.4

CCCCCCO [hexan-1-ol]
Details | mass density [kg/m3]
[1] | 815.9 ± 2.8

CCCC(C)O (configuration not stated) [pentan-2-ol] + O=Cc1ccco1
[2]
Details | mass density [kg/m3]
x2 = 0 | 806.48 ± 3.8
x2 = 0.092 | 831.24 ± 3.9
x2 = 0.1912 | 859.17 ± 3.9
x2 = 0.2652 | 880.87 ± 3.9
x2 = 0.3627 | 910.83 ± 3.9
x2 = 0.4245 | 930.64 ± 3.9
x2 = 0.4984 | 955.28 ± 3.9
x2 = 0.5417 | 970.2 ± 3.9
x2 = 0.6211 | 998.57 ± 3.9
x2 = 0.6746 | 1018.53 ± 3.9
x2 = 0.7117 | 1032.71 ± 3.9
x2 = 0.7692 | 1055.38 ± 3.9
x2 = 0.8249 | 1078.15 ± 3.9
x2 = 0.879 | 1101.1 ± 4
x2 = 0.9111 | 1115.13 ± 4
x2 = 0.9542 | 1134.34 ± 4

CCCO [propan-1-ol] + O=Cc1ccco1
Details | mass density [kg/m3]
[2], x2 = 0 | 799.97 ± 2.8

CCO [ethanol] + O
[2]
Details | mass density [kg/m3]
x1 = 0.0641 | 970.7 ± 3.1
x1 = 0.127 | 952.3 ± 2.7
x1 = 0.1461 | 950.1 ± 2.4
x1 = 0.2437 | 920.1 ± 2.8
x1 = 0.387 | 883.5 ± 2.7
x1 = 0.4238 | 876.2 ± 2.5
x1 = 0.7084 | 825.2 ± 2.4
x1 = 1 | 785.5 ± 2.3

CCCO [propan-1-ol]
Details | mass density [kg/m3]
[1] | 799.97 ± 0.64

Cc1ccco1 [2-methylfuran] + CC(C)O
[2]
Details | mass density [kg/m3]
x1 = 0.0267 | 785.02 ± 2.6
x1 = 0.0493 | 788.28 ± 2.6
x1 = 0.0908 | 794.29 ± 2.6
x1 = 0.1257 | 799.31 ± 2.6
x1 = 0.179 | 806.65 ± 2.6
x1 = 0.2619 | 817.86 ± 2.6
x1 = 0.2995 | 822.82 ± 2.6
x1 = 0.3935 | 835.05 ± 2.6
x1 = 0.537 | 853.23 ± 2.6
x1 = 0.6047 | 861.52 ± 2.6
x1 = 0.6784 | 870.65 ± 2.6
x1 = 0.7217 | 876.04 ± 2.6
x1 = 0.8122 | 886.89 ± 2.6
x1 = 0.8256 | 888.45 ± 2.6
x1 = 0.8759 | 894.66 ± 2.6
x1 = 0.9472 | 903.47 ± 2.6
x1 = 1 | 910.73 ± 2.4

Cc1ccco1 [2-methylfuran] + CCCCCO
[2]
Details | mass density [kg/m3]
x1 = 0.1002 | 819.28 ± 2.5
x1 = 0.1263 | 821.43 ± 2.5
x1 = 0.1771 | 825.74 ± 2.5
x1 = 0.22 | 829.43 ± 2.5
x1 = 0.2723 | 834 ± 2.5
x1 = 0.3399 | 840.06 ± 2.5
x1 = 0.4257 | 848.01 ± 2.5
x1 = 0.4599 | 851.26 ± 2.5
x1 = 0.5134 | 856.49 ± 2.5
x1 = 0.593 | 864.51 ± 2.5
x1 = 0.6556 | 871.07 ± 2.5
x1 = 0.7006 | 875.92 ± 2.5
x1 = 0.7559 | 881.98 ± 2.5
x1 = 0.8293 | 890.24 ± 2.5
x1 = 0.8836 | 896.44 ± 2.5
x1 = 1 | 910.73 ± 2.4

CCC(C)O (configuration not stated) [butan-2-ol] + Cc1ccco1
Details | mass density [kg/m3]
[2], x2 = 0 | 802.88 ± 2.4

CC(C)O [propan-2-ol] + Cc1ccco1
Details | mass density [kg/m3]
[2], x2 = 0 | 780.95 ± 2.4

CCCC(C)O (configuration not stated) [pentan-2-ol] + Cc1ccco1
Details | mass density [kg/m3]
[2], x2 = 0 | 806.48 ± 3.6

CCCCCO [pentan-1-ol] + O=Cc1ccco1
Details | mass density [kg/m3]
[2], x2 = 0 | 810.9 ± 2.8

O=Cc1ccco1 [2-furaldehyde] + CCCC(C)O
Details | mass density [kg/m3]
[2], x1 = 1 | 1155.45 ± 3.8

CCC(C)O (configuration not stated) [butan-2-ol] + O=Cc1ccco1
Details | mass density [kg/m3]
[2], x2 = 0 | 802.88 ± 2.8

O=Cc1ccco1 [2-furaldehyde]
Details | mass density [kg/m3]
[1] | 1155.45 ± 2.8

O=Cc1ccco1 [2-furaldehyde] + CCCCCO
[2]
Details | mass density [kg/m3]
x1 = 0.0837 | 833.12 ± 2.9
x1 = 0.1212 | 843.42 ± 2.9
x1 = 0.1906 | 863.01 ± 2.9
x1 = 0.2617 | 883.85 ± 2.9
x1 = 0.2997 | 895.29 ± 2.9
x1 = 0.3856 | 922.11 ± 2.9
x1 = 0.4254 | 934.98 ± 2.9
x1 = 0.5075 | 962.35 ± 2.9
x1 = 0.5396 | 973.38 ± 2.9
x1 = 0.6236 | 1003.18 ± 3
x1 = 0.708 | 1034.59 ± 3
x1 = 0.7358 | 1045.18 ± 3
x1 = 0.7671 | 1057.41 ± 3
x1 = 0.8967 | 1110.25 ± 3
x1 = 0.9015 | 1112.3 ± 3
x1 = 1 | 1155.45 ± 2.8

Cc1ccco1 [2-methylfuran]
Details | mass density [kg/m3]
[1] | 910.73 ± 2.2

CC(C)O [propan-2-ol] + O=Cc1ccco1
Details | mass density [kg/m3]
[2], x2 = 0 | 780.95 ± 2.8

CCO [ethanol]
Details | mass density [kg/m3]
[1] | 785.45 ± 1

CCCCCO [pentan-1-ol]
Details | mass density [kg/m3]
[1] | 810.9 ± 1

Cc1ccco1 [2-methylfuran] + CCCC(C)O
[2]
Details | mass density [kg/m3]
x1 = 0.0907 | 813.42 ± 3.6
x1 = 0.1322 | 816.51 ± 3.6
x1 = 0.1794 | 820.47 ± 3.6
x1 = 0.2576 | 827.04 ± 3.6
x1 = 0.3029 | 831.05 ± 3.6
x1 = 0.4278 | 842.47 ± 3.6
x1 = 0.4997 | 849.64 ± 3.6
x1 = 0.6108 | 861.2 ± 3.6
x1 = 0.6993 | 871.1 ± 3.6
x1 = 0.7296 | 874.59 ± 3.6
x1 = 0.8143 | 884.9 ± 3.6
x1 = 0.8675 | 891.71 ± 3.6
x1 = 0.9023 | 896.39 ± 3.6
x1 = 0.9441 | 902.21 ± 3.6
x1 = 1 | 910.73 ± 3.6

CCCC(C)O (configuration not stated) [pentan-2-ol]
Details | mass density [kg/m3]
[1] | 806.48 ± 2.8

O=Cc1ccco1 [2-furaldehyde] + CC(C)O
[2]
Details | mass density [kg/m3]
x1 = 0.0534 | 803.11 ± 3
x1 = 0.0877 | 817.2 ± 3
x1 = 0.1839 | 856.01 ± 3
x1 = 0.2041 | 864.12 ± 3
x1 = 0.2517 | 882.87 ± 3
x1 = 0.2794 | 893.74 ± 3
x1 = 0.2855 | 896.16 ± 3
x1 = 0.4063 | 942.61 ± 3.1
x1 = 0.5153 | 983.56 ± 3.1
x1 = 0.5364 | 991.32 ± 3.1
x1 = 0.5702 | 1003.8 ± 3.1
x1 = 0.6564 | 1035.2 ± 3.1
x1 = 0.7345 | 1063.04 ± 3.1
x1 = 0.8252 | 1094.94 ± 3.2
x1 = 0.9055 | 1122.98 ± 3.2
x1 = 1 | 1155.45 ± 2.8

O=Cc1ccco1 [2-furaldehyde] + CCC(C)O
[2]
Details | mass density [kg/m3]
x1 = 0.0237 | 810.18 ± 2.9
x1 = 0.0782 | 827.38 ± 2.9
x1 = 0.1343 | 845.24 ± 3
x1 = 0.1345 | 845.28 ± 3
x1 = 0.2696 | 889.52 ± 3
x1 = 0.2773 | 892.16 ± 3
x1 = 0.417 | 939.59 ± 3
x1 = 0.4498 | 951 ± 3
x1 = 0.535 | 980.92 ± 3
x1 = 0.6274 | 1014.08 ± 3
x1 = 0.6673 | 1028.58 ± 3
x1 = 0.7355 | 1053.74 ± 3
x1 = 0.803 | 1079.08 ± 3
x1 = 0.8794 | 1108.12 ± 3.1
x1 = 1 | 1155.45 ± 2.8

CCCCCCO [hexan-1-ol] + Cc1ccco1
Details | mass density [kg/m3]
[2], x2 = 0 | 815.9 ± 3.6
